Data reported in US11236069B2, “KIF18A inhibitors” (AMGEN INC., priority 2018, dated 2022).
Like-named read-outs stand apart in the source and are kept apart here.

Target: Recombinant human KIF18A (1-467 His-tagged) protein (Homo sapiens (Human), UniProt Q8NI77)
Test: KIF18A Enzyme Assay: microtubule-stimulated ATPase activity (ADP-Glo)
Conditions: read-out: KIF18A ATPase IC50
[1] = 30 nM KIF18A, 30 μg/mL pig microtubules, ATP at Km 75 μM, ADP-Glo luminescence

Sequence of Recombinant human KIF18A (1-467 His-tagged) protein (Q8NI77 1-467): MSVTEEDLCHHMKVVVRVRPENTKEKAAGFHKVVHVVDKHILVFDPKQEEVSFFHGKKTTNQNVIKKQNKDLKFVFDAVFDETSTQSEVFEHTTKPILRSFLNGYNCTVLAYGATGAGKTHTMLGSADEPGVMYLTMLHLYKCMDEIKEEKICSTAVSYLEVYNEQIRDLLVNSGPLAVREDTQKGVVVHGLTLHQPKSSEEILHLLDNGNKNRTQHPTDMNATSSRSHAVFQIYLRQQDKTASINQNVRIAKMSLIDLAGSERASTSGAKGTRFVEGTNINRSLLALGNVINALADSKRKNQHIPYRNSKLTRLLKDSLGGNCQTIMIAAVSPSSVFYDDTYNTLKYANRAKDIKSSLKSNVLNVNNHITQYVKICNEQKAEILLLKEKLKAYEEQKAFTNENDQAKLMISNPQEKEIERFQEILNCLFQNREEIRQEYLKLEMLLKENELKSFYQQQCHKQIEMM
Sequence of Recombinant human KIF18A (1-467 His-tagged) protein (P02550 whole entry partner): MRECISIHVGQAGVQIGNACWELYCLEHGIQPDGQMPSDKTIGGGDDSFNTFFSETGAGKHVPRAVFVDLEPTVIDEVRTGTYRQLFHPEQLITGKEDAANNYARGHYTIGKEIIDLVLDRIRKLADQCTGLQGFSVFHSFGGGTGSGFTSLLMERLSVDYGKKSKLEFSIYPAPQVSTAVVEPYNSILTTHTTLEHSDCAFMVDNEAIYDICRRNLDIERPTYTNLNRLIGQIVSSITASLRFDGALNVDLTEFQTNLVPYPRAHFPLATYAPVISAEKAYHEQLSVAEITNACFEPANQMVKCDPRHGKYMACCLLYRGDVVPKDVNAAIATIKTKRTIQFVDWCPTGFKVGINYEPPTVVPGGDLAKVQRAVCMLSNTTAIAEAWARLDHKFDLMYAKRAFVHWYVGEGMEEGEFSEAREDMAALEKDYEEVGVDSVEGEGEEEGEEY
Sequence of Recombinant human KIF18A (1-467 His-tagged) protein (P02554 whole entry partner): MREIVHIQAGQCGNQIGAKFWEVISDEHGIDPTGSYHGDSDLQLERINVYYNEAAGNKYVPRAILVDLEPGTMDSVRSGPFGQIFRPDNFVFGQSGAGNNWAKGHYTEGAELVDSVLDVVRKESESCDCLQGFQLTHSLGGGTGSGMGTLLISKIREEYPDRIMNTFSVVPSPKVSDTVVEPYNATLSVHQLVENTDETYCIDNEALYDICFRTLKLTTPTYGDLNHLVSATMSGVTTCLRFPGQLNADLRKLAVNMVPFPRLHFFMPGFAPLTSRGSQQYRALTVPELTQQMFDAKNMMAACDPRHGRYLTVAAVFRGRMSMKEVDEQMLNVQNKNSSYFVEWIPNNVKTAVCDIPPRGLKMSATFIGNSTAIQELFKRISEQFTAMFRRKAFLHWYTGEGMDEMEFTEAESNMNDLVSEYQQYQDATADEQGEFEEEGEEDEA
Description: KIF18A Enzyme Assay: Microtubule-stimulated ATPase activity assay is used to measure KIF18A enzyme activity after treatment with compound. Compounds were 2-fold serially diluted in DMSO (Sigma Inc) over 22-point concentration range. […] The assay measures ADP formed from the ATPase reaction.

SMILES	IC50 [1] [nM]	IC50 [nM]
Cc1cc(NC(=O)c2ccc(NS(=O)(=O)CF)cc2N2CCC3(CC2)CC3)nc(N2CCC(F)(F)CC2)n1 [Example 6-2, N-(2-(4,4-Difluoropiperidin-1-yl)-6-methylpyrimidin-4-yl)-4-((fluoromethyl)sulfonamido)-2-(6-azaspiro[2.5]octan-6-yl)benzamide]	42	–
Cc1cc(NC(=O)c2ccc(NS(=O)(=O)CF)cc2N2CCC3(CC2)CC3)nc(N2CCC(F)CC2)n1 [Example 6-1, 4-((Fluoromethyl)sulfonamido)-N-(2-(4-fluoropiperidin-1-yl)-6-methylpyrimidin-4-yl)-2-(6-azaspiro[2.5]octan-6-yl)benzamide]	62	–
Cc1cc(NC(=O)c2ccc(NS(=O)(=O)C3CC3)cc2N2CCC3(CC2)CC3)nc(N2CC(F)(F)C2)n1 [Example 11-22, 4-(Cyclopropanesulfonamido)-N-(2-(3,3-difluoroazetidin-1-yl)-6-methylpyrimidin-4-yl)-2-(6-azaspiro[2.5]octan-6-yl)benzamide]	788	–
Cc1cc(NC(=O)c2ccc(NS(=O)(=O)CCO)cc2N2CCC3(CC2)CC3)nc(N2C[C@H]3C[C@H]3C2)n1 [Example 11-29, N-(2-((1R,5S)-3-Azabicyclo[3.1.0]hexan-3-yl)-6-methylpyrimidin-4-yl)-4-((2-hydroxyethyl)sulfonamido)-2-(6-azaspiro[2.5]octan-6-yl)benzamide]	20	–
Cc1cc(NC(=O)c2cc(Cl)c(NS(=O)(=O)CCO)cc2N2CCC3(CC2)CC3)nc(N2CCC(F)(F)CC2)n1 [Example 6-34, 5-Chloro-N-(2-(4,4-difluoropiperidin-1-yl)-6-methylpyrimidin-4-yl)-4-((2-hydroxyethyl)sulfonamido)-2-(6-azaspiro[2.5]octan-6-yl)benzamide]	92.2	–
Cc1cc(NC(=O)c2ccc(NS(=O)(=O)[C@@H](C)CO)cc2N2CCC3(CC2)CC3)nc(N2CCC(F)CC2)n1 [Example 6-25-1, (S)-N-(2-(4-fluoropiperidin-1-yl)-6-methylpyrimidin-4-yl)-4-((2-hydroxy-1-methylethyl)sulfonamido)-2-(6-azaspiro[2.5]octan-6-yl)benzamide]	47	–
Cc1cc(NC(=O)c2ccc(S(=O)(=O)C3CNC3)cc2N2CCC3(CC2)CC3)nc(N2CCC(F)(F)CC2)n1 [Example 21, 4-(Azetidin-3-ylsulfonyl)-N-(2-(4,4-difluoropiperidin-1-yl)-6-methylpyrimidin-4-yl)-2-(6-azaspiro[2.5]octan-6-yl)benzamide]	40	–
C[C@@H]1CN(c2nccc(NC(=O)c3cc(F)c(NS(=O)(=O)CCO)cc3N3CCC4(CC3)CC4)n2)CCO1 [Example 9-1, (R)-5-Fluoro-4-((2-hydroxyethyl)sulfonamido)-N-(2-(2-methylmorpholino)pyrimidin-4-yl)-2-(6-azaspiro[2.5]octan-6-yl)benzamide]	78	–
Cc1cc(NC(=O)c2ccc(NS(=O)(=O)CCO)cc2N2CCC3(CC2)CC3)nc(N2CC[C@@](C)(F)C2)n1 [Example 11-27, (R)-N-(2-(3-Fluoro-3-methylpyrrolidin-1-yl)-6-methylpyrimidin-4-yl)-4-((2-hydroxyethyl)sulfonamido)-2-(6-azaspiro[2.5]octan-6-yl)benzamide]	20	–
Cc1cc(NC(=O)c2ccc(NS(=O)(=O)C(C)C)cc2N2CCC3(CC2)CC3)nc(N2CC(F)(F)C2)n1 [Example 11-75, N-(2-(3,3-Difluoroazetidin-1-yl)-6-methylpyrimidin-4-yl)-4-((1-methylethyl)sulfonamido)-2-(6-azaspiro[2.5]octan-6-yl)benzamide]	56	–
Cc1cc(NC(=O)c2ccc(NS(=O)(=O)C(C)(C)C)cc2N2CCC3(CC2)CC3)nc(N2CC(F)(F)C2)n1 [Example 11-83, N-(2-(3,3-Difluoroazetidin-1-yl)-6-methylpyrimidin-4-yl)-4-((1,1-dimethylethyl)sulfonamido)-2-(6-azaspiro[2.5]octan-6-yl)benzamide]	98	–
O=C(Nc1ccnc(N2CC(F)(F)C2)n1)c1ccc(NS(=O)(=O)CCO)cc1N1CCC2(CC1)CC2 [Example 11-7, N-(2-(3,3-Difluoroazetidin-1-yl)pyrimidin-4-yl)-4-((2-hydroxyethyl)sulfonamido)-2-(6-azaspiro[2.5]octan-6-yl)benzamide]	23	–
O=C(Nc1ccnc(N2CCC(F)CC2)n1)c1ccc(NS(=O)(=O)CCO)cc1N1CCC2(CC1)CC2 [Example 11-56, N-(2-(4-Fluoropiperidin-1-yl)pyrimidin-4-yl)-4-((2-hydroxyethyl)sulfonamido)-2-(6-azaspiro[2.5]octan-6-yl)benzamide]	22	–
Cc1cc(NC(=O)c2ccc(NS(=O)(=O)[C@@H](C)CO)cc2N2CCC3(CC2)CC3)nc(N2CCO[C@H](C)C2)n1 [Example 6-23-1, 4-(((S)-2-Hydroxy-1-methylethyl)sulfonamido)-N-(6-methyl-2-((R)-2-methylmorpholino)pyrimidin-4-yl)-2-(6-azaspiro[2.5]octan-6-yl)benzamide]	39	–
Cc1cc(NC(=O)c2ccc(NS(=O)(=O)CCO)cc2N2CCC3(CC2)CC3)nc(N2CCC[C@@H](C#N)C2)n1 [Example 11-34, (R)-N-(2-(3-Cyanopiperidin-1-yl)-6-methylpyrimidin-4-yl)-4-((2-hydroxyethyl)sulfonamido)-2-(6-azaspiro[2.5]octan-6-yl)benzamide]	92	–
Cc1cc(NC(=O)c2ccc(NS(=O)(=O)[C@H](C)CO)cc2N2CCC3(CC2)CC3)nc(N2CCC(F)(F)CC2)n1 [Example 5-1, (R)-N-(2-(4,4-Difluoropiperidin-1-yl)-6-methylpyrimidin-4-yl)-4-((2-hydroxy-1-methylethyl)sulfonamido)-2-(6-azaspiro[2.5]octan-6-yl)benzamide]	–	62
Cc1cc(NC(=O)c2ccc(NS(=O)(=O)C[C@H](C)O)cc2N2CCC3(CC2)CC3)nc(N2CC(F)(F)C2)n1 (single isomer, unassigned) [Example 10-2]	73	–
C[C@@H](CO)S(=O)(=O)Nc1ccc(C(=O)Nc2ccnc(N3CCC(F)(F)CC3)n2)c(N2CCC3(CC2)CC3)c1 [Example 6-26-1, (S)-N-(2-(4,4-Difluoropiperidin-1-yl)pyrimidin-4-yl)-4-((2-hydroxy-1-methylethyl)sulfonamido)-2-(6-azaspiro[2.5]octan-6-yl)benzamide]	31	–

Continued by falling IC50 [1], values first:

IC50 [1] [nM]	SMILES	IC50 [nM]
849	Cc1cc(NC(=O)c2ccc(S(C)(=O)=O)cc2N2CCC3(CC2)CC3)nc(NCCO)n1 [Example 1-3, N-(2-((2-Hydroxyethyl)amino)-6-methylpyrimidin-4-yl)-4-(methylsulfonyl)-2-(6-azaspiro[2.5]octan-6-yl)benzamide]	–
826	Cc1cc(NC(=O)c2ccc(S(=O)(=O)C3CC3)cc2N2CCC3(CC2)CC3)nc(N2CCC(F)(F)CC2)n1 [Example 14-5, 4-(Cyclopropylsulfonyl)-N-(2-(4,4-difluoropiperidin-1-yl)-6-methylpyrimidin-4-yl)-2-(6-azaspiro[2.5]octan-6-yl)benzamide]	–
704	Cc1cc(NC(=O)c2ccc(NS(=O)(=O)CCO)cc2N2CCC3(CC2)CC3)nc(N2CC([C@H](C)O)C2)n1 [Example 11-21, (S)-N-(2-(3-(1-Hydroxyethyl)azetidin-1-yl)-6-methylpyrimidin-4-yl)-4-((2-hydroxyethyl)sulfonamido)-2-(6-azaspiro[2.5]octan-6-yl)benzamide]	–
161	C[C@@H]1CN(c2nc(NC(=O)c3ccc(NS(=O)(=O)CCO)cc3N3CCC4(CC3)CC4)cc(C(C)(C)O)n2)CCO1 [Example 6-40, (R)-4-((2-Hydroxyethyl)sulfonamido)-N-(6-(2-hydroxypropan-2-yl)-2-(2-methylmorpholino)pyrimidin-4-yl)-2-(6-azaspiro[2.5]octan-6-yl)benzamide]	–
71	Cc1cc(NC(=O)c2ccc(NS(=O)(=O)C[C@H](C)O)cc2N2CCC3(CC2)CC3)nc(OCCC(F)(F)F)n1 [Example 6-28-2, (S)-4-((2-Hydroxypropyl)sulfonamido)-N-(6-methyl-2-(3,3,3-trifluoropropoxy)pyrimidin-4-yl)-2-(6-azaspiro[2.5]octan-6-yl)benzamide]	–
65	Cc1cc(NC(=O)c2ccc(NS(=O)(=O)CCO)cc2N2CCC3(CC2)CC3)nc(N2CCC(C)(O)CC2)n1 [Example 11-38, N-(2-(4-Hydroxy-4-methylpiperidin-1-yl)-6-methylpyrimidin-4-yl)-4-((2-hydroxyethyl)sulfonamido)-2-(6-azaspiro[2.5]octan-6-yl)benzamide]	–
48.9	Cc1cc(NC(=O)c2ccc(NS(=O)(=O)C3COC3)cc2N2CCC3(CC2)CC3)nc(N2CC(F)(F)C2)n1 [Example 11-23, N-(2-(3,3-Difluoroazetidin-1-yl)-6-methylpyrimidin-4-yl)-4-(oxetane-3-sulfonamido)-2-(6-azaspiro[2.5]octan-6-yl)benzamide]	–
45	Cc1cc(NC(=O)c2ccc(NS(=O)(=O)CCO)cc2N2CCC3(CC2)CC3)nc(N2CCCC(F)(F)C2)n1 [Example 11-39, N-(2-(3,3-Difluoropiperidin-1-yl)-6-methylpyrimidin-4-yl)-4-((2-hydroxyethyl)sulfonamido)-2-(6-azaspiro[2.5]octan-6-yl)benzamide]	–
34	Cc1cc(NC(=O)c2ccc(NS(=O)(=O)CCO)cc2N2CCC3(CC2)CC3)nc(N2CCC3C[C@]3(O)C2)n1 (stereo partly drawn) [Example 11-42, N-(2-((1R)-1-Hydroxy-3-azabicyclo[4.1.0]heptan-3-yl)-6-methylpyrimidin-4-yl)-4-((2-hydroxyethyl)sulfonamido)-2-(6-azaspiro[2.5]octan-6-yl)benzamide]	–
33	Cc1cc(NC(=O)c2ccc(NS(=O)(=O)CCO)cc2N2CCC3(CC2)CC3)nc(N2CCC(F)(F)C2)n1 [Example 11-30, N-(2-(3,3-Difluoropyrrolidin-1-yl)-6-methylpyrim-4-yl)-4-((2-hydroxyethyl)sulfonamido)-2-(6-azaspiro[2.5]octan-6-yl)benzamide]	–
23	O=C(Nc1ccnc(N2CCC(F)(F)CC2)c1)c1ccc(S(=O)(=O)NCCO)cc1N1CCC2(CC1)CC2 [Example 17, N-(2-(4,4-Difluoropiperidin-1-yl)pyridin-4-yl)-4-(N-(2-hydroxyethyl)sulfamoyl)-2-(6-azaspiro[2.5]octan-6-yl)benzamide]	–
